Measurements: a melting point compilation (Tetko et al.)
Non-standard residues stand in square brackets, D forms with d. Residues, ends and D or L forms follow the SMILES beside them. *: point of attachment. X5 = CCC(=O)OC1(C(=O)C(O)O*)CCC2C3CC(C)C4=CC(=O)C=CC4(C)C3C(O)CC21C; Phe(2-Me) = Cc1ccccc1C[CH](N)C(=O)O; Butoxycarbonyl = CCCCOC(=O)*; Tle = CC(C)(C)[CH](N)C(=O)O; X3 = CC(C)(C)OC(=O)CCC(=O)*; Pentanoyl = CCCCC(=O)*; X4 = CCC(N*)C(OC)OC; Bn = c1ccc(C*)cc1; OtBu = CC(C)(C)O*

| melting point [°C] | Compound |
| --- | --- |
| 217 | Cc1ccn2c(-c3ccnc(-c4ccc(OCc5cn(C)cn5)cc4)c3)c(-c3cccc(C)n3)nc2c1 |
| 95 to 97 | COC(=O)C(CCNC(=O)c1ccccc1C(=O)O)Oc1c(Br)cc(-c2ccc(-c3c(Cc4ccccc4)sc4ccccc34)cc2)cc1Br (configuration not stated) |
| 191 to 192 | CCOCc1nc2c(N)nc3cc(-c4cccnc4)ccc3c2n1CC1CCN(C(=O)C2CCCO2)CC1 (configuration not stated) |
| 130 to 150 | C=CCC1C=C(C)CC(C)CC(OC)C2OC(O)(C(C)CC2OC)C(O)C(=O)N2CCCCC2C(=O)OC(C(C)=CC2CCC(O)C(OC)C2)C(C)C(O)CC1O (configuration not stated) |
| 236 | Cc1cccc(-c2sc(N)nc2-c2ccnc(-c3ccc(CN4CCOCC4)cc3)c2)n1 |
| 116 to 118 | N#Cc1ccc(C=Cc2ccc(OCc3ccc4ccccc4n3)cc2)cc1 |
| 160 to 165 | CC1=C(CC(=O)O)c2cc(C#N)ccc2C1=Cc1ccc(S(C)=O)cc1 (configuration not stated) |
| 68.5 to 69.5 | CCCCCCCCCCCCCCCCCCOC(=O)c1cc(C(C)(C)C)c(O[Si](C)(C)Oc2c(C(C)(C)C)cc(C(=O)OCCCCCCCCCCCCCCCCCC)cc2C(C)(C)C)c(C(C)(C)C)c1 |
| 182 to 185 | Cc1cc(CNC(=O)c2nc(N3CCOCC3)n(C)c(=O)c2O)ccc1F |
| 59 to 61 | CC(C)=CCCC(C)=CCCC(C)=CCCC(C)=CCCC(C)=CCCC(C)=CCCC(C)=CCCC(C)=CCCC(C)=CCCC(C)=CCNCC12CCCN1CCC2 |
| 122 to 124 | CC(=O)Nc1cc(C(=O)NC2OC(COC(C)=O)C(OC3OC(COC(C)=O)C(OC(C)=O)C(OC(C)=O)C3OC(C)=O)C(OC(C)=O)C2OC(C)=O)ccc1Cl (configuration not stated) |
| 112 to 113 | Cc1ccc(S(=O)(=O)NNOC(C)C)cc1 |
| 105 | N#Cc1cccc(N2CCOCC2)c1 |
| 75 to 81 | Cc1nc(-c2cncc(F)c2)sc1NC(=O)C(C)CS(C)(=O)=NC#N (configuration not stated) |
| 227 to 228 | CCC1=C(C#N)c2cc3c(c(O)c2CC1)C(=O)c1c(O)cccc1C3=O |
| 165 to 171 | Cc1cc(Cn2nnn(-c3cc(C(F)(F)F)cc(C(F)(F)F)c3)c2=O)ccc1N(C(=O)c1c(I)cccc1C(N)=O)C(C)(C)CS(C)=O (configuration not stated) |
| 92 to 95 | CCOC(=O)N1c2cc(OC)c(OC)cc2C(=O)C(=CN)C1C (configuration not stated) |
| 198 to 199 | COc1cc(OC)c(/C=C/C(c2ccc(OC)c(NC(=O)C(C)(C)O)c2)S(=O)(=O)C(/C=C/c2c(OC)cc(OC)cc2OC)c2ccc(OC)c(NC(=O)C(C)(C)O)c2)c(OC)c1 (configuration not stated) |
| 135 | Cc1ccc(C(c2ccc(C)c(C(OS(C)(=O)=O)(C(F)(F)F)C(F)(F)F)c2)(C(F)(F)F)C(F)(F)F)cc1C(OS(C)(=O)=O)(C(F)(F)F)C(F)(F)F |
| 246 to 248 | O=C(Nc1cc(Cl)cc(Cl)c1)c1c(O)ccc2ccccc12 |

| melting point [°C] | Compound |
| --- | --- |
| 163 to 166 | CC(C)CCCC(C)CCC1(CCC(C)CCCC(C)C)c2cc(Br)ccc2-c2ccc(-c3nc4cc5sc(-c6ccc7c(c6)C(CCC(C)CCCC(C)C)(CCC(C)CCCC(C)C)c6cc(Br)ccc6-7)nc5cc4s3)cc21 (configuration not stated) |
| 80 to 81.5 | Cn1nc(COC(=O)CCC(=O)OCc2nc(NCCCOc3cccc(CN4CCCCC4)c3)n(C)n2)nc1NCCCOc1cccc(CN2CCCCC2)c1 |
| 256 to 258 | CCCCCCCS(=O)(=O)c1cc2c3cc(S(=O)(=O)CCCCCCC)c(S(=O)(=O)CCCCCCC)cc3c3cc(S(=O)(=O)CCCCCCC)c(S(=O)(=O)CCCCCCC)cc3c2cc1S(=O)(=O)CCCCCCC |
| 148 | CCC1(O)CC(OC2CC(N(C)C)C(OC3CC(O)C(OC4CCC(=O)C(C)O4)C(C)O3)C(C)O2)c2c(cc3c(c2O)C(=O)c2c(O)cccc2C3=O)C1C(=O)OC (configuration not stated) |
| 242 to 244 | CCC(NC(=O)C(CC(C)C)NC(=O)C(NC(=O)C(Cc1ccccc1C)NC(=O)C(CCC(=O)OC(C)(C)C)NC(=O)C(CC(=O)OC(C)(C)C)NC(=O)CCC(=O)OC(C)(C)C)C(C)(C)C)C(OC)OC (X3-D(OtBu)E(OtBu)[Phe(2-Me)][Tle]L-X4; configuration not given here) |
| 125 to 127 | CC(C)OC(=O)C(CCC(C(=O)OC(C)C)N1CCN(CC(=O)OC(C)(C)C)CCN(C=O)CCN(CC(=O)OC(C)(C)C)CC1)N1CCN(CC(=O)OC(C)(C)C)CCN(C=O)CCN(CC(=O)OC(C)(C)C)CC1 (configuration not stated) |
| 55 | CN1C(=O)C(Br)=C(c2cn(C3OC(COCc4ccccc4)C(OCc4ccccc4)C(OCc4ccccc4)C3OCc3ccccc3)c3ccccc23)C1=O (configuration not stated) |
| 176 to 178 | CCOC(=O)c1cn(C23CC(C2)C3)c2c(F)c(F)c(F)cc2c1=O |
| 213 to 217 | NCCC(N)c1ccccc1C(F)(F)F (configuration not stated) |
| 82 to 83 | O=Cc1ccc(OC(F)F)c(O)c1 |
| 63 to 65 | CCCCCCCCCCN(CCCCN(CCCN(CCCCCCCCCC)C(=O)c1cccc(O)c1O)C(=O)c1cccc(O)c1O)C(=O)c1cccc(O)c1O |
| 109 | C=CC(CC(O)C(CC1CCCCC1)NC(=O)C(Cc1c[nH]cn1)NC(=O)C(Cc1ccccc1)NC(=O)CN(CCNC(=O)OC(C)(C)C)C(=O)OC(C)(C)C)C(C)C (configuration not stated) |
| 142 | CCCCC(=O)NC(C)C(=O)NC(C)C(=O)N1CCCC1C(=O)NC(C(=O)OC(O)C(=O)C1(OC(=O)CC)CCC2C3CC(C)C4=CC(=O)C=CC4(C)C3C(O)CC21C)C(C)C (configuration not stated) (Pentanoyl-AAPV-X5; configuration not given here) |
| 17 | CC(=O)OCC(O)CO (configuration not stated) |
| 85 to 103 | CCCCN(c1nc(NC(C)(C)CC(C)(C)C)nc(N(CCCC)C2CC(C)(C)N(OC3CCCCC3)C(C)(C)C2)n1)C1CC(C)(C)N(OC2CCCCC2)C(C)(C)C1 |
| 33 | CCCCCCCCCCCCCCCCCCOc1nc(OCCCCCCCCCCCCCCCCCC)nc(Oc2cc(-c3ccccc3)c(O)c(-c3ccccc3)c2)n1 |
| 240 to 241 | Nc1cccc(CN2C(=O)C3(COc4cc5c(cc43)OCCO5)c3ccccc32)n1 (configuration not stated) |
| 160 to 161 | COc1ccc(C(/C=C/c2cc(I)c(OC)c(OC)c2)S(=O)(=O)C(/C=C/c2cc(I)c(OC)c(OC)c2)c2ccc(OC)cc2)cc1 (configuration not stated) |
| 140 to 142 | CCCC(=O)c1cnc2c(C(C)O)cccc2c1Nc1ccccc1C (configuration not stated) |
| 151 to 156 | CC1(C)CC(C(O)CNc2nc(NCc3ccc(CNc4nc(NCC(O)C5CC(C)(C)NC(C)(C)C5)nc(NCC(O)C5CC(C)(C)NC(C)(C)C5)n4)cc3)nc(NCC(O)C3CC(C)(C)NC(C)(C)C3)n2)CC(C)(C)N1 (configuration not stated) |

| melting point [°C] | Compound |
| --- | --- |
| 179 to 181 | CCCCCCCCCCCCOC(CCCCCCCCCCC)CCOC1C(NC(C)=O)C(OCC2OC(C(=O)O)C(NC(=O)CC(O)CCCCCCCCCCC)C(OCCC(O)CCCCCCCCCCC)C2O)OC(CO)C1OP(=O)(O)O (configuration not stated) |
| 170 to 171 | Cc1ccc(S(=O)(=O)N2CCN(C)CCN(S(=O)(=O)c3ccc(C)cc3)CCN(S(=O)(=O)c3ccc(C)cc3)CCN(S(=O)(=O)c3ccc(C)cc3)CC2)cc1 |
| 232 to 234 | CC(=O)OCC(COC(C)=O)NC(=O)c1c(I)c(C(=O)NC(COC(C)=O)COC(C)=O)c(I)c(N2CCC(Br)C2=O)c1I (configuration not stated) |
| 94 to 96 | COc1cc(OC)c(/C=C/C(c2ccc(OC)c(OC)c2OC)S(=O)(=O)C(/C=C/c2c(OC)cc(OC)cc2OC)c2ccc(OC)c(OC)c2OC)c(OC)c1 (configuration not stated) |
| 43.5 to 44.5 | IC(I)=C(I)CCOCCC(I)=C(I)I |
| 126 to 127 | O=C1OC(O)c2cccc(F)c21 (configuration not stated) |
| 212 | CC(C)(C)OC(=O)NC(Cc1cc(I)c(Oc2cc(I)c(O)c(I)c2)c(I)c1)C(=O)O (configuration not stated) |
| 112 to 114 | CC(C)CCCC(C)C1CCC2C3CC=C4CC(N(CCCNC(=O)CCNC(=O)CNC(=O)OCC5c6ccccc6-c6ccccc65)C(=O)OC(C)(C)C)CCC4(C)C3CCC12C (configuration not stated) |
| 112 to 114 | CCC(Br)=C1NC(=O)N(C(C(=O)Nc2cc(NC(=O)C(CC)Oc3ccc(C(C)(C)CC)cc3C(C)(C)CC)ccc2Cl)C(=O)c2ccc(OC)cc2)C1=O (configuration not stated) |
| 162 to 164 | C=CCCC(=O)Nc1c(I)c(C(=O)NC(COC(C)=O)COC(C)=O)c(I)c(C(=O)NC(COC(C)=O)COC(C)=O)c1I |
| 290 | FC(F)(F)c1ccc(-c2cc(-c3ccc(C(F)(F)F)cc3C(F)(F)F)c3ccc4c(-c5ccc(C(F)(F)F)cc5C(F)(F)F)cc(-c5ccc(C(F)(F)F)cc5C(F)(F)F)c5ccc2c3c54)c(C(F)(F)F)c1 |
| 191 | CON=C(C(=O)NC1C(=O)N2C1CSC(c1ccc(Cl)cc1)C2(O)C(=O)OC(C)(C)C)c1csc(NC(c2ccccc2)(c2ccccc2)c2ccccc2)n1 (configuration not stated) |
| 190 | CCCCCCCCCCCCCCCCCCCCCCCCCC(=O)NC(COC1OC(CO)C(O)C(O)C1O)C(O)C(O)CCCCCCCCCCCCCC (configuration not stated) |
| 160 to 163 | CN=S(=O)(Cc1ccc(Cl)nc1)c1nc(-c2ccc(OC)cc2)cs1 (configuration not stated) |
| 180 to 184 | COc1cc(OC)c(C=CC(c2ccc(OC)c(CC(=O)O)c2)(S(N)(=O)=O)S(=O)(=O)C(C=Cc2c(OC)cc(OC)cc2OC)(c2ccc(OC)c(CC(=O)O)c2)S(N)(=O)=O)c(OC)c1 (configuration not stated) |
| 195 | COc1ccc(C(CCCC(C(=O)C(CCCC(c2ccc(OC)c(OC)c2)N2C(=O)c3ccccc3C2=O)N2C(=O)c3ccccc3C2=O)N2C(=O)c3ccccc3C2=O)N2C(=O)c3ccccc3C2=O)cc1OC (configuration not stated) |
| 130 to 135 | CCOC(=O)[C@@H](CCC(=O)N1c2ccccc2C[C@H]1C(=O)OCC)NC(=O)[C@H](CCCCNSc1ncccc1[N+](=O)[O-])NC(=O)OCc1ccc2c(c1)OCO2 |
| 80 to 82 | [C-]#[N+]CC(=O)N(c1ccccc1)C(C)C |
| 112 to 114 | O=[N+]([O-])c1ccccc1N1CCc2cc(Br)ccc21 |
| 186 to 189 | COc1cc(C(=O)Oc2ccc3c(OC(=O)c4ccc(OCc5ccccc5)c(OC)c4)c4cc(OC(=O)c5ccc(OCc6ccccc6)c(OC)c5)ccc4cc3c2)ccc1OCc1ccccc1 |

| Compound | melting point [°C] |
| --- | --- |
| [C-]#[N+]c1c(Cl)cc(OC)cc1Cl | 110 to 112 |
| CCCCOC(=O)NC(COCc1ccccc1)C(=O)NC(Cc1c[nH]c2ccccc12)C(=O)NC(CO)C(=O)NC(Cc1ccc(O)cc1)C(=O)NC(Cc1ccccc1)C(=O)NC(CC(C)C)C(=O)OC (configuration not stated) (Butoxycarbonyl-S(Bn)WSYFL-OMe; configuration not given here) | 200 to 202 |
